# Laboratory results published in US10682371B2, “Small molecule conjugates specifically activated in tumor microenvironment for targeting and use thereof” (priority 2014, dated 2020).
# *1 amine or outer side, *2 acyl side, *3 side chain or, on linkers, in order; H or OH if unused. Where a SMILES comes first, the peptide text is derived from it. [ ]: non-standard residue; d: D form. The star is where a group is joined. ξ: configuration not given here. Doxorubicin(3'-N) = COc1cccc2c1C(=O)c1c(O)c3c(c(O)c1C2=O)C[C@@](O)(C(=O)CO)C[C@@H]3O[C@H]1C[C@H](N*)[C@H](O)[C@H](C)O1; Dolaproine(all-ξ) = COC(C(C)C(=O)[*:2])C1CCCN1[*:1]; Dolaproine = CO[C@@H]([C@@H]1CCCN1)[C@@H](C)C(=O)O; Dil = CC[C@H](C)[C@H](NC)[C@@H](CC(=O)O)OC; X1 = CCC(C)C(C(CC(=O)[*:2])OC)N(C)[*:1]; PABC = O=C(OCc1ccc(N[*:1])cc1)[*:2]; X3 = C[C@@H](N*)[C@@H](O)c1ccccc1; MeOCH2CH2OCH2CO = COCCOCC(=O)*; NMeV = CN[CH](C(=O)O)C(C)C; X2 = CC(N*)C(O)c1ccccc1; Cbz = O=C(OCc1ccccc1)*
# Columns and labels:
# HEK293 cells = format: cell-based
# Description: Toxicity detection method: a standard universal test program was used to perform the in vitro cytotoxicity test. 2500 HEK293 cells were cultured in a 96-well plate, and allowed to grow overnight. Cytotoxic compounds and their corresponding conjugated compounds were added into each well in different concentrations, cultivated with the cells at 37° C. for 72 hours, and then treated with MTT reagents. OD changes were read. The approximate multiples of the toxicity change were obtained by comparing the IC50 of the modified compounds to their corresponding cytotoxic compounds.
# [1] = system: Human breast cancer MDA-MB231 cells; format: in vivo, nude mice; details: for tumor inhibition rate (%): mouse, in vivo
# Description: 1) Human breast cancer MDA-MB231 cells were purchased from American type culture collection (ATCC) and identified according the specification provided by ATCC. Cells were cultivated in […] (DMEM culture medium) containing 10% fetal bovine serum at 37° C. and 5% CO2. The cells were passaged for every three days and cells within the 15th passage were used.
# 2) Production of tumor. 5×10^6 MDA-MB231 cells were subcutaneously injected to the back of the nude mice. Mice were randomly grouped after the tumor reached at least 100 mm^3. Then treatment began and the day on which the treatment began was day 1.
# 3) Course of treatment. […] The drugs were administered once weekly for four weeks.
# When R1 is 2-(2-Methoxyethoxy)Acetyl, and R3 is Ala, activation study and efficacy study were carried out by using compounds having different cleavable linker. The study methods are identical to those in Examples 10, 11 and 12. The in vitro activation efficiency was tested by asparagine endopeptidase and the tumor inhibition rate was tested by using human breast cancer MDA-MB231 model. […]
# asparagine endopeptidase = molecular target: T1, asparagine endopeptidase (Homo sapiens, UniProt Q99538)
# T1 sequence (Q99538 26-323 limits assumed): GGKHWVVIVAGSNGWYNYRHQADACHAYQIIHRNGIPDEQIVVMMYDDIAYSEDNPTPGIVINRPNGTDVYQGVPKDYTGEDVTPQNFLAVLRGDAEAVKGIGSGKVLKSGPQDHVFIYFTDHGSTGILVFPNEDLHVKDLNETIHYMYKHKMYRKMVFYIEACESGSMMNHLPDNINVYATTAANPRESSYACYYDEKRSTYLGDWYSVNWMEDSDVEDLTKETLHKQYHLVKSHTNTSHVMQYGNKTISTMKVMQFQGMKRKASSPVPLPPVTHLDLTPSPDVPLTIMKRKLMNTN
# Description: Reduction of reactant and increase of product were detected by HPLC, thereby comparing the activation efficiency of these compounds.
# When R1 is 2-(2-Methoxyethoxy)Acetyl, and R3 is Ala, activation study and efficacy study were carried out by using compounds having different cleavable linker. The study methods are identical to those in Examples 10, 11 and 12. The in vitro activation efficiency was tested by asparagine endopeptidase and the tumor inhibition rate was tested by using human breast cancer MDA-MB231 model.
# [2] = system: Human breast cancer MDA-MB435 tumor tissue homogenate; format: biochemical; details: Human breast cancer MDA-MB435 tumor tissue homogenate (30 μg/ml); 1 mg/ml compound
# Description: (§1) At 37 °C, sample compounds were added into 100 μg acidized tumor tissue homogenates (pH6.0) in a concentration of 1 mg/ml.
# (§2) At 37 °C, sample compounds were added into 100 μg acidized human breast cancer (MDA-MB435) tumor tissue homogenates (pH6.0) in a concentration of 1 mg/ml.
# (§3) […], sample compounds were added into 100 μg acidized tumor tissue homogenates (pH6.0) in a concentration of 1 mg/ml.
# as §2
# (§4) At 37 °C, sample compounds were added into 100 μg acidized tumor tissue homogenates in a concentration of 1 mg/ml.
# (§5) In the experiments, at 37 °C, compounds were added into proteases in 100 μg acidized tumor tissue homogenates in a concentration of 1 mg/ml. […] Meanwhile certain compounds produced in the screening were compared and their activation efficiency in same tissue was analyzed.
# (§6) At 37° C., compounds were added into proteases in 100 μg acidized tumor tissue homogenates in a concentration of 1 mg/ml.
# Human heart = format: biochemical; details: Human heart homogenate; 1 mg/ml compound
# [3] = system: Human pancreatic cancer Panc-1 tumor tissue homogenate; format: biochemical; details: Human pancreatic cancer Panc-1 tumor tissue homogenate (30 μg/ml); 1 mg/ml compound
# Description: as §1, §3, §4, §5, §6
# [4] = system: Human renal cancer OS-RC-2 tumor tissue homogenate; format: biochemical; details: Human renal cancer OS-RC-2 tumor tissue homogenate (30 μg/ml); 1 mg/ml compound
# Description: as §1, §3, §4, §5, §6
# [5] = system: Human chronic leukemia K562 tumor tissue homogenate; format: biochemical; details: Human chronic leukemia K562 tumor tissue homogenate (30 μg/ml); 1 mg/ml compound
# Description: as §1, §3, §4, §5, §6
# [6] = system: Human colon cancer HT-29 tumor tissue homogenate; format: biochemical; details: Human colon cancer HT-29 tumor tissue homogenate (30 μg/ml); 1 mg/ml compound
# Description: as §1, §3, §4, §5, §6
# [7] = system: Human non-small cell lung cancer A549 tumor tissue homogenate; format: biochemical; details: Human non-small cell lung cancer A549 tumor tissue homogenate (30 μg/ml); 1 mg/ml compound
# Description: as §1, §3, §4, §5, §6
# [8] = system: Human liver cancer Hepg2 tumor tissue homogenate; format: biochemical; details: Human liver cancer Hepg2 tumor tissue homogenate (30 μg/ml); 1 mg/ml compound
# Description: as §1, §3, §4, §5, §6
# tumor CD8+ T cells = format: in vivo, C57 mice; details: D121 immunized C57 mice, 13.2 μmol/kg; ratio of CD8 positive cells in CD45 positive cells of tumor
# Description: (§7) 4) Analysis on tumor CD8+ T cells. The tumor tissue was homogenated and individual cells in the tumor were filtered, separated and washed by buffer twice, then cultivated with the leucocyte common antigen CD45-PE and CD8-FITC marked antibodies for 1 hour at ambient temperature. The cells were washed by phosphate buffer containing 1% fetal bovine serum twice and then analyzed for the ratio of the T lymphocyte antigen (CD8) positive cells in the leucocyte common antigen (CD45) positive cells by flow cytometry.
# as §7, with “CD45-PE and T-lymphocyte antigen CD8-FITC marked” for “CD45-PE and CD8-FITC marked”, “flow cytometry. Increasement of the ratio indicates increased T lymphocyte cells and thus the animal immunity against the tumor was improved.” for “flow cytometry.”
# as §7, with “cytometry. Increasement of the ratio indicates increased T lymphocyte cells and thus the animal immunity against the tumor was improved.” for “cytometry.”
# D121 lung tumor cells = format: in vivo, C57 mice
# Description: 1) D121 lung tumor cells were purchased from ATCC. Cells were cultivated in DMEM culture solution containing 10% fetal bovine serum at 37° C. and 5% CO2. The cells were passaged for every three days and cells within the 15th passage were used.
# (§8) 2) Tumor immunization. 5×10^5 D121 lung cancer cells (purchased from ATCC) which were killed by irradiation were intraperitoneally injected to mice. The mice were injected for 3 times, once every two weeks. After immunization, mice were injected with tumor cells and the drugs were administered weekly for 4 weeks.
# 3) Production of tumor. At day 32, 10^6 live lung tumor cells were subcutaneously injected to the back of the C57 mice immunized by tumor. Treatment began when the tumor grew to 0.3-0.4 cm.
# as §8, with “4 weeks. In table 16 below the immune group was immuned with D121 lung tumor cells and the group without dead D121 lung tumor cells was injected with physiological saline as controls.” for “4 weeks.”
# 3) Production of tumor. After immunization (4 weeks later), 10^6 live lung tumor cells were subcutaneously injected to the back of the C57 mice immunized by tumor. Treatment began when the tumor grew to 0.3-0.4 cm. Tumor size (mm^3) were noted and tumor inhibition rates were calculated.
# as §8, with “4 weeks. In the table below the immune group was immuned with D121 lung tumor cells and the group without dead D121 lung tumor cells was injected with physiological saline as controls.” for “4 weeks.”
# 3) Production of tumor. At day 32, 10^6 live D121 lung tumor cells were subcutaneously injected to the back of the C57 mice immunized by tumor. Treatment began when the tumor grew to 0.3-0.4 cm.
# 1) D121 lung tumor cells were purposed from ATCC. Cells were cultivated in DMEM culture solution containing 10% fetal bovine serum at 37° C. and 5% CO2. The cells were passaged for every three days and cells within the 15th passage were used.
smiles,measurement,setting,value
COCCOCC(=O)N[C@@H](C)C(=O)N[C@@H](C)C(=O)N[C@@H](CC(N)=O)C(=O)N[C@@H](CC(C)C)C(=O)N[C@H]1C[C@H](O[C@H]2C[C@](O)(C(=O)CO)Cc3c(O)c4c(c(O)c32)C(=O)c2c(OC)cccc2C4=O)O[C@@H](C)[C@H]1O [PEG-AANL-DOX] (MeOCH2CH2OCH2CO-AANL-{Doxorubicin(3'-N)}),Cytoxicity reduced (Multiples),HEK293 cells,110.2 Multiples
same,tumor inhibition rate (%),[1],60.3%
same,Cleaving efficiency,asparagine endopeptidase,66.5%
CCC(C)C(C(CC(=O)N1CCCC1C(OC)C(C)C(=O)NC(C)C(O)c1ccccc1)OC)N(C)C(=O)C(NC(=O)C(C(C)C)N(C)C(=O)OCc1ccc(NC(=O)C(CC(N)=O)NC(=O)C(C)NC(=O)C(C)NC(=O)COCCOC)cc1)C(C)C (stereo not drawn) [PEG-AAN-PABC-MMAE] (MeOCH2CH2OCH2CO-AAN[PABC][NMeV]V[X1][Dolaproine(all-ξ)]-X2; configuration not given here),Cytoxicity reduced (Multiples),HEK293 cells,22 Multiples
same,tumor inhibition rate (%),[1],34.4%
same,Cleaving efficiency,asparagine endopeptidase,14.4%
"COCCOCC(=O)N[C@H](C(=O)N[C@@H](C)C(=O)N[C@@H](CC(N)=O)C(=O)Nc1ccc(COC(=O)N[C@H]2C[C@H](O[C@H]3C[C@](O)(C(C)=O)Cc4c(O)c5c(c(O)c43)C(=O)c3c(OC)cccc3C5=O)O[C@@H](C)[C@H]2O)cc1)C(C)O (stereo partly drawn) [Compound S4, 4-N—(N—(N—(N-2-(2-methoxyethoxy)acetyl-L-threonyl)-L-alanyl)-L-asparaginyl)-amino benzyl alcohol-daunorubicin-carbamate]",Activation Efficiencies (%),[2],83.5%
same,Activation Efficiencies (%),Human heart,2.8%
same,Cytoxicity reduced (Multiple),"HEK293 cells; HEK293, 72 hours, MTT, IC50 of modified compound compared to its corresponding cytotoxic compound, approximate multiples",345 Multiple
same,Size of tumor (mm^3) Day 10,"[1]; MDA-MB231, nude mice, IV 13.2 μmol/kg once weekly for four weeks, Day 10",95.56 ± 57.54 mm^3
same,Size of tumor (mm^3) Day 24,"[1]; MDA-MB231, nude mice, IV 13.2 μmol/kg once weekly for four weeks, Day 24",64.68 ± 43.56 mm^3
same,"Effect on tumor growth, in words","[1]; compared to control, camptothecin, capecitabine and daunorubicin groups",strong inhibitory effect on tumor growth
same,Activation Efficiencies (%),[3],67.3%
same,Activation Efficiencies (%),[4],78.5%
same,Activation Efficiencies (%),[5],64.5%
same,Activation Efficiencies (%),[6],83.5%
same,Activation Efficiencies (%),[7],64.5%
same,Activation Efficiencies (%),[8],67.3%
same,CD8: CD45 (%),tumor CD8+ T cells,16.8%
same,Size of tumor (mm^3) Day 18,"D121 lung tumor cells; D121 immunized C57 mice, 13.2 μmol/kg weekly, PDL1 antibody 5 μg/kg where combined, Day 18",316.78 ± 109.98 mm^3
same,"Treatment effects on C57 mice, in words",D121 lung tumor cells; compared to the control group and the other treatment groups,greatly improved
CC[C@H](C)[C@@H]([C@@H](CC(=O)N1CCC[C@H]1[C@H](OC)[C@@H](C)C(=O)N[C@H](C)[C@@H](O)c1ccccc1)OC)N(C)C(=O)[C@@H](NC(=O)[C@H](C(C)C)N(C)C(=O)OCc1ccc(NC(=O)[C@H](CC(N)=O)NC(=O)[C@H](C)NC(=O)[C@H](C)NC(=O)OCc2ccccc2)cc1)C(C)C [CBZ-AAN-PABC-MMAE] (Cbz-AAN[PABC][NMeV]V[Dil][Dolaproine]-X3),Cytoxicity reduced (Multiples),HEK293 cells,8.3 Multiples
same,tumor inhibition rate (%),[1],9.7%
same,Cleaving efficiency,asparagine endopeptidase,2.6%
CC[C@H](C)[C@@H]([C@@H](CC(=O)N1CCC[C@H]1[C@H](OC)[C@@H](C)C(=O)N[C@H](C)[C@@H](O)c1ccccc1)OC)N(C)C(=O)[C@@H](NC(=O)[C@H](C(C)C)N(C)C(=O)OCc1ccc(NC(=O)[C@H](CC(N)=O)NC(=O)[C@H](C)NC(=O)[C@H](C)NC(C)=O)cc1)C(C)C [AC-AAN-PABC-MMAE] (Ac-AAN[PABC][NMeV]V[Dil][Dolaproine]-X3),Cytoxicity reduced (Multiples),HEK293 cells,15.5 Multiples
same,tumor inhibition rate (%),[1],16.7%
same,Cleaving efficiency,asparagine endopeptidase,3.4%
